According to patent publication US8088815B2, “Spiroindolinone pyrrolidines” (Hoffman-La Roche Inc., priority 2009, dated 2012):

Target: interaction between p53 and MDM2 proteins (Homo sapiens, UniProt Q00987)
Experiment: HTRF assay of inhibition of the p53-MDM2 interaction (GST-MDM2 / biotinylated p53 peptide)
Format: binding
Details: recombinant GST-tagged MDM2 and biotinylated p53 peptide, bsa:0.02%

Chain of interaction between p53 and MDM2 proteins (Q00987 whole entry): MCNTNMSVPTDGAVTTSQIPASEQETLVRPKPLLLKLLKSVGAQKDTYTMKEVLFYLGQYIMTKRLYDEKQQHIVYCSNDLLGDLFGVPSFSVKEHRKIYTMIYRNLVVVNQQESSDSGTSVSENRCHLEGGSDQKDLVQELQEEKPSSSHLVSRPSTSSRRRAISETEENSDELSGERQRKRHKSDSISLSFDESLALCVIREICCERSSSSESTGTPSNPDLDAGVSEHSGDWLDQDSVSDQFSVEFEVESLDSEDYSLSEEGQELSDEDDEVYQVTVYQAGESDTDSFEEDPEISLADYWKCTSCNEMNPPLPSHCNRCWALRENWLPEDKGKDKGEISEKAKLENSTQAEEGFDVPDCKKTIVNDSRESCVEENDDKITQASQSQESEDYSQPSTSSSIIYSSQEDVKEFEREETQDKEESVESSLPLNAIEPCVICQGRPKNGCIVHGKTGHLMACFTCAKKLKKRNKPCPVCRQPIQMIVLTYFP

Compound | IC50 [nM]
CCOc1cc(C(=O)OC)ccc1NC(=O)[C@@H]1N[C@@H](CC(C)(C)C)[C@@]2(C(=O)Nc3cc(Cl)ccc32)[C@H]1c1cccc(Cl)c1F (racemic) [Example 129, rac-4-{[(2′S,3′R,4′S,5′R)-6-chloro-4′-(3-chloro-2-fluoro-phenyl)-2′-(2,2-dimethyl-propyl)-2-oxo-1,2-dihydro-spiro[indole-3,3′-pyrrolidine]-5′-carbonyl]-amino}-3-ethoxy-benzoic acid methyl ester] | 10
CCOc1cc(C(=O)O)ccc1NC(=O)[C@@H]1N[C@@H](CC(C)(C)C)[C@@]2(C(=O)Nc3cc(Cl)ccc32)[C@H]1c1cccc(Cl)c1F (racemic) [Example 130, rac-4-{[(2′S,3′R,4′S,5′R)-6-chloro-4′-(3-chloro-2-fluoro-phenyl)-2′-(2,2-dimethyl-propyl)-2-oxo-1,2-dihydro-spiro[indole-3,3′-pyrrolidine]-5′-carbonyl]amino}-3-ethoxy-benzoic acid] | 11
CCOc1cc(C(N)=O)ccc1NC(=O)[C@@H]1N[C@@H](CC(C)(C)C)[C@@]2(C(=O)Nc3cc(Cl)ccc32)[C@H]1c1cccc(Cl)c1F (racemic) [Example 131, rac-(2′S,3′R,4′S,5′R)-6-chloro-4′-(3-chloro-2-fluoro-phenyl)-2′-(2,2-dimethyl-propyl)-2-oxo-1,2-dihydro-spiro[indole-3,3′-pyrrolidine]-5′-carboxylic acid (4-carbamoyl-2-ethoxy-phenyl)-amide] | 14
COc1cc(S(=O)(=O)N2CCOCC2)ccc1NC(=O)[C@@H]1N[C@@H](CC(C)(C)C)[C@@]2(C(=O)Nc3cc(Cl)ccc32)[C@H]1c1cccc(Cl)c1F (racemic) [Example 138, rac-(2′S,3′R,4′S,5′R)-6-chloro-4′-(3-chloro-2-fluoro-phenyl)-2′-(2,2-dimethyl-propyl)-2-oxo-1,2-dihydro-spiro[indole-3,3′-pyrrolidine]-5′-carboxylic acid [2-methoxy-4-(morpholine-4-sulfonyl)-phenyl]-amide] | 13
COc1cc(N2CCOCC2)ccc1NC(=O)[C@@H]1N[C@@H](CC(C)(C)C)[C@@]2(C(=O)Nc3cc(Cl)ccc32)[C@H]1c1cccc(Cl)c1F (racemic) [Example 143, rac-(2′S,3′R,4′S,5′R)-6-chloro-4′-(3-chloro-2-fluoro-phenyl)-2′-(2,2-dimethyl-propyl)-2-oxo-1,2-dihydro-spiro[indole-3,3′-pyrrolidine]-5′-carboxylic acid (2-methoxy-4-morpholin-4-yl-phenyl)-amide] | 15
COc1cc(N2CC(C)OC(C)C2)ccc1NC(=O)[C@@H]1N[C@@H](CC(C)(C)C)[C@@]2(C(=O)Nc3cc(Cl)ccc32)[C@H]1c1cccc(Cl)c1F (mixture of isomers) [Example 144, rac-(2′S,3′R,4′S,5′R)-6-chloro-4′-(3-chloro-2-fluoro-phenyl)-2′-(2,2-dimethyl-propyl)-2-oxo-1,2-dihydro-spiro[indole-3,3′-pyrrolidine]-5′-carboxylic acid [4-(2,6-dimethyl-morpholin-4-yl)-2-methoxy-phenyl]-amide] | 19
CC(C)(C)C[C@@H]1N[C@@H](C(=O)Nc2ccc(C(N)=O)cc2OC(F)(F)F)[C@H](c2cccc(Cl)c2F)[C@]12C(=O)Nc1cc(Cl)ccc12 (racemic) [Example 146, rac-(2′S,3′R,4′S,5′R)-6-chloro-4′-(3-chloro-2-fluoro-phenyl)-2′-(2,2-dimethyl-propyl)-2-oxo-1,2-dihydro-spiro[indole-3,3′-pyrrolidine]-5′-carboxylic acid (4-carbamoyl-2-trifluoromethoxy-phenyl)-amide] | 14
CCCCOc1cc(C(=O)OC)ccc1NC(=O)[C@@H]1N[C@@H](CC(C)(C)C)[C@@]2(C(=O)Nc3cc(Cl)ccc32)[C@H]1c1cccc(Cl)c1F (racemic) [Example 150, rac-3-butoxy-4-{[(2′S,3′R,4′S,5′R)-6-chloro-4′-(3-chloro-2-fluoro-phenyl)-2′-(2,2-dimethyl-propyl)-2-oxo-1,2-dihydro-spiro[indole-3,3′-pyrrolidine]-5′-carbonyl]-amino}-benzoic acid methyl ester] | 15
CCCCOc1cc(C(=O)O)ccc1NC(=O)[C@@H]1N[C@@H](CC(C)(C)C)[C@@]2(C(=O)Nc3cc(Cl)ccc32)[C@H]1c1cccc(Cl)c1F (racemic) [Example 151, rac-3-butoxy-4-{[(2′S,3′R,4′S,5′R)-6-chloro-4′-(3-chloro-2-fluoro-phenyl)-2′-(2,2-dimethyl-propyl)-2-oxo-1,2-dihydro-spiro[indole-3,3′-pyrrolidine]-5′-carbonyl]amino}-benzoic acid] | 13
CCCCOc1cc(C(N)=O)ccc1NC(=O)[C@@H]1N[C@@H](CC(C)(C)C)[C@@]2(C(=O)Nc3cc(Cl)ccc32)[C@H]1c1cccc(Cl)c1F (racemic) [Example 152, rac-(2′S,3′R,4′S,5′R)-6-chloro-4′-(3-chloro-2-fluoro-phenyl)-2′-(2,2-dimethyl-propyl)-2-oxo-1,2-dihydro-spiro[indole-3,3′-pyrrolidine]-5′-carboxylic acid (2-butoxy-4-carbamoyl-phenyl)-amide] | 11
COc1cc(-n2cnnn2)ccc1NC(=O)[C@@H]1N[C@@H](CC(C)(C)C)[C@@]2(C(=O)Nc3cc(Cl)ccc32)[C@H]1c1cccc(Cl)c1F (racemic) [Example 153, rac-(2′S,3′R,4′S,5′R)-6-chloro-4′-(3-chloro-2-fluoro-phenyl)-2′-(2,2-dimethyl-propyl)-2-oxo-1,2-dihydro-spiro[indole-3,3′-pyrrolidine]-5′-carboxylic acid (2-methoxy-4-tetrazol-1-yl-phenyl)-amide] | 8
COc1cc(NS(C)(=O)=O)ccc1NC(=O)[C@@H]1N[C@@H](CC(C)(C)C)[C@@]2(C(=O)Nc3cc(Cl)ccc32)[C@H]1c1cccc(Cl)c1F (racemic) [Example 155, rac-(2′S,3′R,4′S,5′R)-6-chloro-4′-(3-chloro-2-fluoro-phenyl)-2′-(2,2-dimethyl-propyl)-2-oxo-1,2-dihydro-spiro[indole-3,3′-pyrrolidine]-5′-carboxylic acid (4-methanesulfonylamino-2-methoxy-phenyl)-amide] | 13
COc1cnccc1NC(=O)[C@@H]1N[C@@H](CC(C)(C)C)[C@@]2(C(=O)Nc3cc(Cl)ccc32)[C@H]1c1cccc(Cl)c1F (racemic) [Example 162, rac-(2′S,3′R,4′S,5′R)-6-chloro-4′-(3-chloro-2-fluoro-phenyl)-2′-(2,2-dimethyl-propyl)-2-oxo-1,2-dihydro-spiro[indole-3,3′-pyrrolidine]-5′-carboxylic acid (3-methoxy-pyridin-4-yl)-amide] | 19
COc1cc(N(C)C)ccc1NC(=O)[C@@H]1N[C@@H](CC(C)(C)C)[C@@]2(C(=O)Nc3cc(Cl)ccc32)[C@H]1c1cccc(Cl)c1F (racemic) [Example 164, rac-(2′S,3′R,4′S,5′R)-6-chloro-4′-(3-chloro-2-fluoro-phenyl)-2′-(2,2-dimethyl-propyl)-2-oxo-1,2-dihydro-spiro[indole-3,3′-pyrrolidine]-5′-carboxylic acid (4-dimethylamino-2-methoxy-phenyl)-amide] | 18
CNc1cc(C(=O)OC)ccc1NC(=O)[C@@H]1N[C@@H](CC(C)(C)C)[C@@]2(C(=O)Nc3cc(Cl)ccc32)[C@H]1c1cccc(Cl)c1F (racemic) [Example 166, rac-4-{[(2′S,3′R,4′S,5′R)-6-chloro-4′-(3-chloro-2-fluoro-phenyl)-2′-(2,2-dimethyl-propyl)-2-oxo-1,2-dihydro-spiro[indole-3,3′-pyrrolidine]-5′-carbonyl]amino}-3-methylamino-benzoic acid methyl ester] | 25
CNc1cc(C(=O)O)ccc1NC(=O)[C@@H]1N[C@@H](CC(C)(C)C)[C@@]2(C(=O)Nc3cc(Cl)ccc32)[C@H]1c1cccc(Cl)c1F (racemic) [Example 167, rac-4-{[(2′S,3′R,4′S,5′R)-6-chloro-4′-(3-chloro-2-fluoro-phenyl)-2′-(2,2-dimethyl-propyl)-2-oxo-1,2-dihydro-spiro[indole-3,3′-pyrrolidine]-5′-carbonyl]-amino}-3-methylamino-benzoic acid] | 10
CC(C)(C)C[C@@H]1N[C@@H](C(=O)Nc2ccc(C#N)cc2)[C@H](c2cccc(Cl)c2F)[C@]12C(=O)Nc1c2ccc(Cl)c1F (racemic) [Example 175, rac-(2′S,3′R,4′S,5′R)-6-chloro-4′-(3-chloro-2-fluoro-phenyl)-2′-(2,2-dimethyl-propyl)-7-fluoro-2-oxo-1,2-dihydro-spiro[indole-3,3′-pyrrolidine]-5′-carboxylic acid (4-cyano-phenyl)-amide] | 40
CC(C)(C)C[C@@H]1N[C@@H](C(=O)Nc2ccc(C(N)=O)cc2)[C@H](c2cccc(Cl)c2F)[C@]12C(=O)Nc1c2ccc(Cl)c1F (racemic) [Example 176, rac-(2′S,3′R,4′S,5′R)-6-chloro-4′-(3-chloro-2-fluoro-phenyl)-2′-(2,2-dimethyl-propyl)-7-fluoro-2-oxo-1,2-dihydro-spiro[indole-3,3′-pyrrolidine]-5′-carboxylic acid (4-carbamoyl-phenyl)-amide] | 18
COc1cc(C#N)ccc1NC(=O)[C@@H]1N[C@@H](CC(C)(C)C)[C@@]2(C(=O)Nc3c2ccc(Cl)c3F)[C@H]1c1cccc(Cl)c1F (racemic) [Example 177, rac-(2′S,3′R,4′S,5′R)-6-chloro-4′-(3-chloro-2-fluoro-phenyl)-2′-(2,2-dimethyl-propyl)-7-fluoro-2-oxo-1,2-dihydro-spiro[indole-3,3′-pyrrolidine]-5′-carboxylic acid (4-cyano-2-methoxy-phenyl)-amide] | 21
COc1cc(C(N)=O)ccc1NC(=O)[C@@H]1N[C@@H](CC(C)(C)C)[C@@]2(C(=O)Nc3c2ccc(Cl)c3F)[C@H]1c1cccc(Cl)c1F (racemic) [Example 178, rac-(2′S,3′R,4′S,5′R)-6-chloro-4′-(3-chloro-2-fluoro-phenyl)-2′-(2,2-dimethyl-propyl)-7-fluoro-2-oxo-1,2-dihydro-spiro[indole-3,3′-pyrrolidine]-5′-carboxylic acid (4-carbamoyl-2-methoxy-phenyl)-amide] | 15
